Where “and” joins values, the source holds several entries; their conditions need not be identical. Equal entries are not always repeated.
Assay: Pharmacokinetic evaluation of liquid bevirimat dosage forms, oral gavage, male Cynomolgus monkeys
Method: Six male Cynomolgus monkeys having an initial body weight of about 3.5 to about 4.5 kg are allowed 7 days to acclimate to their individual housing units. Monkeys are supplied with water and a commercial diet ad libitum prior to the study initiation. Food is withheld from the monkeys for a minimum of twelve hours before the study and during the study until four hours postdose when food is returned. Water is supplied ad libitum.
Test formulations are administered to the monkeys at time 0 on appropriate days. Test formulations will be dosed orally via oral gavage or intravenously.
Samples are drawn at the frequencies indicated below. Each blood sample (0.5 mL) is collected from the monkey's saphenous vein via a butterfly catheter and placed into a chilled polypropylene tube containing sodium heparin as the anticoagulant. Blood samples are centrifuged at a temperature of 4° C. at a speed of 3,000 rpm for 15 minutes. All samples are maintained chilled throughout processing. Plasma is collected after centrifugation, pipetted into a 2-mL polypropylene microtube, and frozen on dry-ice pending analytical evaluation.

[1] = 12.5 mg FAE/mL in 10% HPβCD, 50 mg FAE/monkey oral gavage, monkeys 186,116,120,AVG
[2] = 12.5 mg FAE/mL in 15% EtOH:0.5% TPGS:15% PG:5% Glycerin, 0.2% Povidone K90, 50 mg FAE/monkey oral gavage, monkeys 117,118,119,AVG
[3] = 12.5 mg FAE/mL in 15% Ethanol, 30% PG, 10% Glycerin, 50 mg FAE oral gavage, monkeys 117,118,119,AVG
[4] = 12.5 mg FAE/mL in 40% PG, 20% Glycerin, 0.25% Tween80, 0.2% Povidone K15, 50 mg FAE oral gavage, monkeys 186,116,120,AVG
[5] = 12.5 mg FAE/mL in 40% PG, 20% Glycerin, 1% TPGS, 0.25% Tween80, 0.2% Povidone K15, 50 mg FAE/monkey oral gavage, monkeys 117,118,119,AVG
[6] = 12.5 mg FAE/mL in 40% PG, 20% glycerin, 5% Vitamin E TPGS, 0.25% Tween80, 0.20% Plasdone C15, 10 mM sodium phosphate pH 8.0, 200 mg/monkey (50.0 mg/kg) oral gavage, monkeys 181,182,AVG
[7] = 50 mg FAE/mL in 40% EtOH:40% PG:20% Glycerol, 50 mg FAE/monkey oral gavage, monkeys 117,118,119,AVG
[8] = male, cynomolgus monkey, in vivo, 50 mg/kg, pH 8
[9] = male, cynomolgus monkey, in vivo, po, 50 mg FAE/monkey

C=C(C)[C@@H]1CC[C@]2(C(=O)O)CC[C@]3(C)[C@H](CC[C@@H]4[C@@]5(C)CC[C@H](OC(=O)CC(C)(C)C(=O)O)C(C)(C)[C@@H]5CC[C@]43C)[C@@H]12 [Bevirimat, 3-O-(3′,3′-dimethylsuccinyl)betulinic acid]
AUCall [1]: 392.275 µg·h/mL
Cmax [1]: 56.4 µg/mL
Dnzed AUCall [1]: 38150 ng·h/mL/mg/kg
t1/2 [1]: 7.0 h and 11.4 h and 9.4 h
t1/2 (12.5 mg FAE/mL in 15% EtOH:0.5% TPGS:15% PG:5% Glycerin, 50 mg FAE/monkey oral gavage, monkeys 117,118,119,AVG): 11.3 h and 11.5 h and 11.6 h
AUCall [2]: 270.194 µg·h/mL and 344.629 µg·h/mL and 367.461 µg·h/mL
Cmax [2]: 65.6 µg/mL and 52.8 µg/mL and 56.567 µg/mL
t1/2 [2]: 14.5 h and 8.7 h and 11.8 h
Cmax [3]: 57.2 µg/mL and 97.4 µg/mL and 72.9 µg/mL
t1/2 [3]: 10.4 h and 9.0 h and 9.4 h
Dnzed AUCall [4]: 17281 ng·h/mL/mg/kg and 15596 ng·h/mL/mg/kg
t1/2 [4]: 8.1 h and 10.2 h and 8.7 h
t1/2 (12.5 mg FAE/mL in 40% PG, 20% Glycerin, 1% TPGS, 0.25% Tween80, 50 mg FAE/monkey oral gavage, monkeys 186,116,120,AVG): 9.9 h and 11.1 h and 10.3 h
Cmax [5]: 84.8 µg/mL and 77.2 µg/mL and 85.1 µg/mL
t1/2 [5]: 7.9 h and 6.4 h and 8.2 h
AUCall [6]: 1681.058 µg·h/mL
Cmax [6]: 174 µg/mL and 199.5 µg/mL
Dnzed AUCall [6]: 33621 ng·h/mL/mg/kg
t1/2 [6]: 10.2 h and 9.2 h
t1/2 (25 mg/mL in 30% EtOH:1% TPGS:30% PG:10% Glycerin, 50 mg FAE/monkey oral gavage, monkeys 117,118,119,AVG): 17.8 h and 9.0 h and 12.5 h
Cmax [7]: 24.9 µg/mL and 33.1 µg/mL and 27.933 µg/mL
t1/2 [7]: 7.8 h and 8.5 h
t1/2 (50 mg FAE/mL in 40% PG:20% Glycerin:1% TPGS:5% Tween 80 in SWFI, 50 mg FAE/monkey oral gavage, monkeys 117,118,119,AVG): 11.8 h and 14.6 h and 12.8 h
t1/2 (10% HPβCD, 50 mg FAE/monkey oral gavage, monkeys 117,118,119,AVG): 10.2 h and 11.0 h and 10.4 h
bioavailability (male, cynomolgus monkey, in vivo): ~55%
concentration at 1 hr [8]: 108 µg/mL
concentration at 2 hr [8]: 225 µg/mL
concentration at 4 hr [8]: 163 µg/mL
concentration at 6 hr [8]: 107 µg/mL
concentration at 8 hr [8]: 70.3 µg/mL
concentration at 12 hr [8]: 47.5 µg/mL
concentration at 0.25 hr (male, cynomolgus monkey, in vivo, po, 50 mg FAE): 3.06 µg/mL
concentration at 0.25 hr (male, cynomolgus monkey, in vivo, po, 50 mg FAE, Plasma concentration, 0.25 hr, 12.5 mg FAE/mL in 15% Ethanol, 30% PG, 10% Glycerin, 50 mg FAE oral gavage, monkeys 117,118,119,AVG, BLOQ=below 50 ng/mL): 0.066 µg/mL
concentration at 4 hr (male, cynomolgus monkey, in vivo, po, 50 mg FAE, Plasma concentration, 4.0 hr, 12.5 mg FAE/mL in 15% Ethanol, 30% PG, 10% Glycerin, 50 mg FAE oral gavage, monkeys 117,118,119,AVG): 46 µg/mL
concentration at 6 hr (male, cynomolgus monkey, in vivo, po, 50 mg FAE, Plasma concentration, 6.0 hr, 12.5 mg FAE/mL in 15% Ethanol, 30% PG, 10% Glycerin, 50 mg FAE oral gavage, monkeys 117,118,119,AVG): 44.7 µg/mL
concentration at 24 hr (male, cynomolgus monkey, in vivo, po, 50 mg FAE, Plasma concentration, 24 hr, 12.5 mg FAE/mL in 40% PG, 20% Glycerin, 0.25% Tween80, 0.2% Povidone K15, 50 mg FAE oral gavage, monkeys 186,116,120,AVG): 0.434 µg/mL
concentration at 48 hr (male, cynomolgus monkey, in vivo, po, 50 mg FAE, Plasma concentration, 48 hr, 12.5 mg FAE/mL in 40% PG, 20% Glycerin, 0.25% Tween80, 0.2% Povidone K15, 50 mg FAE oral gavage, monkeys 186,116,120,AVG): 0.0603 µg/mL
concentration at 72 hr (male, cynomolgus monkey, in vivo, po, 50 mg FAE, Plasma concentration, 72 hr, 12.5 mg FAE/mL in 15% Ethanol, 30% PG, 10% Glycerin, 50 mg FAE oral gavage, monkeys 117,118,119,AVG, BLOQ=below 50 ng/mL): 0.179 µg/mL
concentration at 1 hr [9]: 85.2 µg/mL
concentration at 2 hr [9]: 93.3 µg/mL
concentration at 4 hr [9]: 62.7 µg/mL
concentration at 0.25 hr (male, cynomolgus monkey, in vivo, po, 50 mg FAE/monkey, Plasma concentration, 0.25 hr, 25 mg/mL in 30% EtOH:1% TPGS:30% PG:10% Glycerin, 50 mg FAE/monkey oral gavage, monkeys 117,118,119,AVG, BLOQ=below 50 ng/mL): 0.147 µg/mL
concentration at 0.25 hr (male, cynomolgus monkey, in vivo, po, 50 mg FAE/monkey, Plasma concentration, 0.25 hr, 50 mg FAE/mL in 40% EtOH:40% PG:20% Glycerol, 50 mg FAE/monkey oral gavage, monkeys 117,118,119,AVG, BLOQ=below 50 ng/mL): 0.0755 µg/mL
concentration at 0.5 hr (male, cynomolgus monkey, in vivo, po, 50 mg FAE/monkey, Plasma concentration, 0.50 hr, 12.5 mg FAE/mL in 40% PG, 20% Glycerin, 1% TPGS, 0.25% Tween80, 0.2% NaCMC, 50 mg FAE/monkey oral gavage, monkeys 117,118,119,AVG): 12.5 µg/mL
concentration at 1 hr (male, cynomolgus monkey, in vivo, po, 50 mg FAE/monkey, Plasma concentration, 1.0 hr, 12.5 mg FAE/mL in 10% HPβCD, 50 mg FAE/monkey oral gavage, monkeys 186,116,120,AVG): 56.4 µg/mL
concentration at 1 hr (male, cynomolgus monkey, in vivo, po, 50 mg FAE/monkey, Plasma concentration, 1.0 hr, 12.5 mg FAE/mL in 40% PG, 20% Glycerin, 1% TPGS, 0.25% Tween80, 50 mg FAE/monkey oral gavage, monkeys 186,116,120,AVG): 65.5 µg/mL
concentration at 1 hr (male, cynomolgus monkey, in vivo, po, 50 mg FAE/monkey, Plasma concentration, 1.0 hr, 50 mg FAE/mL in 40% EtOH:40% PG:20% Glycerol, 50 mg FAE/monkey oral gavage, monkeys 117,118,119,AVG): 19.2 µg/mL

Source: patent US20100216751A1 (priority 2007, published 2010)
